In patent US4845095A, “4-phenylpiperidine compounds and their use” (A/S Ferrosan, priority 1987, dated 1989):

Tested on: acetic acid induced writhing syndrome
Assay: acetic acid induced writhing syndrome in mice
Assay type: in vivo, mice (NMRI)
Settings: for ED50: Mus musculus, sc, dose giving 50 per cent protection against writhings, s.c. 30 minutes before acetic acid 0.5 per cent i.p., writhings counted 5-15 minutes after; for inhibition (ED50 table): s.c. 30 minutes before acetic acid
Procedure: The pharmaceutical properties of the compounds of the invention can be illustrated by determining their capability to antagonize the acetic acid induced writhing syndrome in mice.
In mice i.p. injection of acetic acid induces a writhing syndrome which is antagonized by analgesics (Siegmund et al., Proc. Soc. exp. Biol. 95, 729-731 (1957); Eckhardt et al., Proc. Soc. exp. Biol. 98, 186-188 (1958).
Test procedure: Acetic acid 0.5 per cent is injected i.p. (0.15 ml/10g body weight) to 6 mice (NMRI, either sex weighing 20-25 g) pretreated with physiological saline (controls) and to 6 mice pretreated with test substance. In the controls acetic acid induces a syndrome characterized by contraction of abdomen, turning of trunk and extension of hind limbs. Saline and test substances are administered s.c. 30 minutes before acetic acid. The number of writhings is counted 5-15 minutes after injection of acetic acid. The activity is expressed as per cent protection=
(Control drug)/Control×100
The effect of active substances is evaluated by a dose response curve, log dose on the abscissa, and per cent protection on the ordinate. The potency is expressed as the dose (ED50) in mg/kg giving 50 per cent protection against writhings. Test results obtained by testing some compounds of the invention will appear from the following table.

Compound: COCc1noc(C2(c3ccccc3)CCN(C)CC2)n1.Cl [Compound 4, 1-methyl-4-(3-methoxymethyl-1,2,4-oxadiazol-5-yl)-4-phenylpiperidine hydrochloride]
- ED50: 3 mg/kg

Compound: CN1CCC(c2ccccc2)(c2nc(C3CC3)no2)CC1.Cl [Compound 2, 1-methyl-4-(3-cyclopropyl-1,2,4-oxadiazol-5-yl)-4-phenylpiperidine hydrochloride]
- ED50: 7.6 mg/kg

Compound: O=C(O)C(=O)O.c1ccc(OCCCCN2CCC(c3ccccc3)(c3nc(C4CC4)no3)CC2)cc1 [Compound 16, 4-(3-cyclopropyl-1,2,4-oxadiazol-5-yl)-1-(4-phenoxybutyl)-4-phenylpiperidine oxalate]
- inhibition (ED50 table) (at 10 (table head mg/kg)): 34%

Compound: CON=CC1(c2ccccc2)CCN(C)CC1.O=C(O)C(=O)O [Compound 10, 4-Methoxyiminomethyl-1-methyl-4-phenyl-piperidine oxalate]
- ED50: 3.2 mg/kg

Compound: CN1CCC(c2ccccc2)(c2nc(-c3ccccc3)no2)CC1 [Compound 3, 1-methyl-4-(3-phenyl-1,2,4-oxadiazol-5-yl)-4-phenylpiperidine]
- inhibition (ED50 table) (at 3 (table head mg/kg)): 41%

Compound: CCOC(=O)C1(c2ccccc2)CCN(C)CC1 [Pethidine, reference compound]
- ED50: 9.25 mg/kg

Compound: Cc1noc(C2(c3ccccc3)CCN(C)CC2)n1.Cl [Compound 1, 1-Methyl-4-(3-methyl-1,2,4-oxadiazol-5-yl)-4-phenylpiperidine hydrochloride]
- ED50: 5.7 mg/kg

Compound: c1ccc(C2(c3nc(C4CC4)no3)CCNCC2)cc1 [Compound 13, 4-(3-cyclopropyl-1,2,4-oxadiazol-5-yl)-4-phenylpiperidine]
- ED50: 2.9 mg/kg
